In patent publication US7994129B2, “Methods of using black bear parathyroid hormone” (Michigan Technological University, priority 2005, dated 2011):
Entries after “also recorded” stand apart in the source; their conditions may differ.

Tests used:
[1] = tested on: rats; settings: cited from earlier work; for osteosarcoma on long-term usage: rats
[2] = men and women who can lose 20-30% of cortical and cancellous bone; cited from earlier work
[3] = tested on: MC-3T3 cells; test: Gene expression by real-time PCR in MC-3T3 cells incubated with synthetic bear or human PTH 1-34 (Example 11); type: cell-based; settings: 100 nM; for expression ratio of Bax/Bcl-2: 3 hours, MC-3T3 cells (FIG. 7, n=4); for expression of type I collagen / expression of osteocalcin: 6 hours, MC-3T3 cells; for expression of type I collagen: compared to the vehicle control; for expression of osteocalcin: compared to the vehicle control (FIG. 6, n=2)
Procedure: MC-3T3 cells were incubated in vehicle or 100 nM synthetic bear or human PTH 1-34 for 3 or 6 hours (n=2 or 4). Total RNA was isolated, and cDNA was generated with reverse transcription. Primers for the bone matrix proteins type I collagen and osteocalcin, the pro-apoptotic protein Bax, the anti-apoptotic protein Bcl-2, and the housekeeping genes Gapdh, β-actin, and cyclophillin were designed using PrimerQuest software (Integrated DNA Technologies, Coralville, Iowa). Real-time PCR was performed using the Mx3000P real-time PCR system (Stratagene, LaJolla, Calif.). All samples were measured in duplicate. Gene expression was determined using the relative standard curve method normalized to the geometric mean of the three housekeeping genes (Gapdh, β-actin, and cyclophillin). Apoptosis-related genes were analyzed as the expression ratio of Bax/Bcl-2, since a decrease in this ratio is associated with decreased apoptosis in vitro.

[4] = tested on: MC-3T3 osteoblastic cells and MLO-Y4 osteocytic cells; test: Gene expression in bone cell lines by real-time PCR (Example 7); type: cell-based; settings: 100 nM PTH polypeptide, 1 or 3 hours
Procedure: Full-length recombinant black bear PTH (residues 1-84) is produced and its effects on levels of gene expression in bone cell lines (MC-3T3 osteoblastic cells and MLO-Y4 osteocytic cells) are investigated and are compared to results obtained using recombinant human PTH 1-84. Equivalent experiments are conducted using subfragments of black bear and human PTH, the subfragments including amino acid residues 1-34, 1-36, 7-84, 11-84, and 41-52 of the full-length (1-84) mature protein. For some experiments, black bear and human PTH polypeptides are synthesized with solid-phase methods.
To determine the effect of black bear and human PTH on regulation of bone matrix, transcriptional regulatory, anti-apoptosis (Bcl-2) genes, and the pro-apoptosis gene Bax, cells are cultured for 1 or 3 hours with human or bear PTH 1-84 or a subfragment. Gene expression is quantified with real-time PCR. […]
Reverse transcription to generate cDNA is performed using Superscript II reverse transcriptase (Invitrogen, Carlsbad, Calif.), and 0.5 μg Oligo(dT) 12-18 primer at 42° C. for 20 minutes, 50° C. for 10 minutes and 42° C. for 1 hour in a gradient thermocycler (Mastercycler gradient, Eppendorf, Westbury, N.Y.). […] Gene expression is determined using the relative standard curve method normalized to the geometric mean of the three housekeeping genes. […]

[5] = tested on: ovariectomized rats; settings: cited from earlier work
[6] = tested on: procollagen-1 mRNA; settings: Nasu et al., 1998; cited from earlier work
[7] = humans, once daily; cited from earlier work

CC[C@H](C)[C@H](NC(=O)[C@H](CCC(=O)O)NC(=O)[C@H](CO)NC(=O)[C@@H](NC(=O)[C@@H](N)CO)C(C)C)C(=O)N[C@@H](CCC(N)=O)C(=O)N[C@@H](CC(C)C)C(=O)N[C@@H](CCSC)C(=O)N[C@@H](Cc1cnc[nH]1)C(=O)N[C@@H](CC(N)=O)C(=O)N[C@@H](CC(C)C)C(=O)NCC(=O)N[C@@H](CCCCN)C(=O)N[C@@H](Cc1cnc[nH]1)C(=O)N[C@@H](CC(C)C)C(=O)N[C@@H](CC(N)=O)C(=O)N[C@@H](CO)C(=O)N[C@@H](CCSC)C(=O)N[C@@H](CCC(=O)O)C(=O)N[C@@H](CCCN=C(N)N)C(=O)N[C@H](C(=O)N[C@@H](CCC(=O)O)C(=O)N[C@@H](Cc1c[nH]c2ccccc12)C(=O)N[C@@H](CC(C)C)C(=O)N[C@@H](CCCN=C(N)N)C(=O)N[C@@H](CCCCN)C(=O)N[C@@H](CCCCN)C(=O)N[C@@H](CC(C)C)C(=O)N[C@@H](CCC(N)=O)C(=O)N[C@@H](CC(=O)O)C(=O)N[C@H](C(=O)N[C@@H](Cc1cnc[nH]1)C(=O)N[C@@H](CC(N)=O)C(=O)N[C@@H](Cc1ccccc1)C(=O)O)C(C)C)C(C)C [LY333334]
osteosarcoma on long-term usage [1]: generates osteosarcoma

ALX1-11: recombinant human PTH 1-84 (NPS Pharmaceuticals), under consideration for FDA approval
osteosarcoma on long-term usage [1]: generates osteosarcoma
lost bone recovered during suggested treatment regimen [2]: 8%

bear PTH 1-34: synthetic polypeptide of amino acid residues 1-34 of black bear parathyroid hormone, SEQ ID NO: 2 (SVSEIQFMHNLGKHLSSMERVEWLRKKLQDVHNF; listed as Ursus americanus)
expression ratio of Bax/Bcl-2 [3]: decreased
expression ratio of Bax/Bcl-2 ([3]; listed as black bear PTH 1-34): decreases
expression of type I collagen [3]: did not affect
expression of osteocalcin [3]: substantially upregulated
expression of osteocalcin ([3]; listed as black bear PTH 1-34): upregulate
gene expression (bone matrix, transcriptional regulatory and transcriptional activator genes) [4]: upregulates

bovine PTH 1-34: bovine PTH 1-34; rat PTH 1-34 has 5 amino acid sequence differences from it (AVSEIQFMHNLGKHLSSMERVEWLRKKLQDVHNF; Parathyroid hormone; UniProt P01268 32-65, looked up, fragment)
greater bone formation response than to rat PTH 1-34 ([5]; daily 25 μg injections): 25%
greater increase in bone volume fraction during treatment ([5]; injection, versus rat PTH 1-34): 37%

human PTH 1-34: synthetic human PTH 1-34, the 1-34 region of human PTH, used as comparator (SVSEIQLMHNLGKHLNSMERVEWLRKKLQDVHNF; Parathyroid hormone; UniProt P01270 32-65, looked up, fragment)
expression ratio of Bax/Bcl-2 [3]: increases
expression of type I collagen [3]: did not affect
expression of osteocalcin [3]: substantially upregulated; also recorded: upregulate
production of procollagen-1 mRNA [6]: down-regulates

human PTH 1-84: full-length human parathyroid hormone, residues 1-84
rate of carcinogenicity compared with human PTH 1-34 ([1]; preliminary results): lower

B1: Human PTH: human parathyroid hormone given once daily to humans (protein, UniProt P01270 32-115, looked up)
Parathyroid hormone: SVSEIQLMHNLGKHLNSMERVEWLRKKLQDVHNFVALGAPLAPRDAGSQRPRKKEDNVLVESHEKSLGEADKADVNVLTKAKSQ
modifications: Parathyroid hormone
bone mass [7]: increases
fracture incidence [7]: decreases
